Laboratory results reported in article PMC7872956, “Fucosidases from the human gut symbiont Ruminococcus gnavus” (Cellular and Molecular Life Sciences: CMLS, 2020).

What was measured:
[1] = biological target: T1, GH29 fucosidase E1_10125 (Mediterraneibacter gnavus, UniProt A0A6N3BKT0, D236A); test: X-ray crystal structure ([…] Å) and ITC; type: binding
T1 construct: gene hypBA2
T1 sequence (A0A6N3BKT0 35-583 D236A): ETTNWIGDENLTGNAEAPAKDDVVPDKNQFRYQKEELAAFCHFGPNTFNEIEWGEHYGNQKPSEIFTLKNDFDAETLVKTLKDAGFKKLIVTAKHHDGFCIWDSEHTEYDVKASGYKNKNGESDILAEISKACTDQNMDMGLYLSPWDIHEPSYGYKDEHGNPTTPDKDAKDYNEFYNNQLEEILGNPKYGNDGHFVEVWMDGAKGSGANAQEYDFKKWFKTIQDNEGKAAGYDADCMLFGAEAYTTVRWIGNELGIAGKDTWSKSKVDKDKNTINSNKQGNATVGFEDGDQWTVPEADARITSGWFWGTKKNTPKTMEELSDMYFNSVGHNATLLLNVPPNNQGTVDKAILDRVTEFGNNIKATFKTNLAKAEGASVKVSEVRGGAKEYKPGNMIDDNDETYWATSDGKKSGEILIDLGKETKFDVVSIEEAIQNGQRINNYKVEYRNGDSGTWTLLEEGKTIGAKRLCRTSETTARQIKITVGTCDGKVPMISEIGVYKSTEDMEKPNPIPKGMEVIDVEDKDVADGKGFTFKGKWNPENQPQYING

[2] = biological target: T1, GH29 fucosidase E1_10125; test: STD NMR binding epitope mapping
[3] = biological target: T2, GH29 fucosidase E1_10125 (Mediterraneibacter gnavus, UniProt A0A6N3BKT0, D236A); test: ITC; also STD NMR; type: binding
T2 construct: gene hypBA2

| Compound | STD NMR binding epitope mapping [2] | Kd [3] | other results |
| --- | --- | --- | --- |
| C[C@@H]1OC(O)[C@@H](O)[C@H](O)[C@@H]1O (stereo partly drawn) [Fuc, L-fucose] |  |  | Kd [1]: 21.7 µM |
| CC(=O)N[C@H]1C(O)O[C@H](CO)[C@@H](O[C@@H]2O[C@@H](C)[C@@H](O)[C@@H](O)[C@@H]2O)[C@@H]1O[C@@H]1O[C@H](CO)[C@H](O)[C@H](O)[C@H]1O (stereo partly drawn) [LeA, Lewis A] | The enzyme intimately recognized the three sugar residues constituting 3FL and LeA |  |  |
| CC(=O)N[C@H]1[C@H]([C@H](O)[C@H](O)CO)O[C@@](O[C@H]2[C@@H](O)[C@@H](CO)O[C@@H](O[C@H]3[C@H](O[C@@H]4O[C@@H](C)[C@@H](O)[C@@H](O)[C@@H]4O)[C@@H](NC(C)=O)C(O)O[C@@H]3CO)[C@@H]2O)(C(=O)O)C[C@@H]1O (stereo partly drawn) [sLeX, 3′-Sialyl Lewis X] |  | 3.59 ± 0.48 µM |  |
| CC(=O)N[C@H]1C(O)O[C@H](CO)[C@@H](O[C@@H]2O[C@H](CO)[C@H](O)[C@H](O[C@H]3O[C@H](CO)[C@H](O)[C@H](O)[C@H]3O)[C@H]2O)[C@@H]1O[C@@H]1O[C@@H](C)[C@@H](O)[C@@H](O)[C@@H]1O (stereo partly drawn) [αGal-LeX, α1–3Gal-Lewis X] |  | 47.1 ± 5.6 µM |  |
| CC(=O)N[C@H]1C(O)O[C@H](CO)[C@@H](O[C@@H]2O[C@H](CO)[C@H](O)[C@H](O)[C@H]2O)[C@@H]1O[C@@H]1O[C@@H](C)[C@@H](O)[C@@H](O)[C@@H]1O (stereo partly drawn) [LeX, Lewis X] |  | 51.4 ± 1.93 µM |  |
| C[C@@H]1O[C@@H](O[C@H]2[C@H](O[C@@H]3O[C@H](CO)[C@H](O)[C@H](O)[C@H]3O)[C@@H](CO)OC(O)[C@@H]2O)[C@@H](O)[C@H](O)[C@@H]1O (stereo partly drawn) [3FL] | The enzyme intimately recognized the three sugar residues constituting 3FL and LeA |  |  |
